Reference: the supplement of paper PMC10307832

Legend:
Assay in all cases: relative viability (nuclei count vs DMSO), 5 days (fraction); higher = more cells survive
[1] = compound: CC1=CC(=CC=C1)NC2=NC(=CS2)C3=CC=NC=C3 + NC(=O)Nc1cc(-c2cccc(F)c2)sc1C(=O)N[C@H]1CCCNC1 [AZD7762] (partner 0.2 µM)
How it was run: (§1)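 The day after seeding in 1536-well plates, lung cancer cell lines were treated by pin tool with a single drug, or with a fixed anchor-drug dose together with five library-drug doses (not always all listed) in √10 steps. After 5 days, a combined fix-and-stain solution (final 0.05% Triton X-100, 1% formaldehyde, 1 ug/ml Hoechst) was added. Nuclei counted on 4× images gave relative viability as treated counts over vehicle counts, reported as the median of duplicate plates.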

[2] = compound: CC1=CC(=CC=C1)NC2=NC(=CS2)C3=CC=NC=C3 + Nc1nc2[nH]cc(CCc3ccc(C(=O)N[C@@H](CCC(=O)O)C(=O)O)cc3)c2c(=O)[nH]1 [Pemetrexed] (partner 0.2 µM)
How it was run: as §1

Masitinib + Phenformin = compound: Cc1ccc(NC(=O)c2ccc(CN3CCN(C)CC3)cc2)cc1Nc1nc(-c2cccnc2)cs1 [Masitinib] + N=C(N)NC(=N)NCCc1ccccc1 [Phenformin] (partner 250 µM)
How it was run: as §1

[3] = compound: CC1=CC(=CC=C1)NC2=NC(=CS2)C3=CC=NC=C3 + Cc1cc(Nc2cc(N3CCN(C)CC3)nc(Sc3ccc(NC(=O)C4CC4)cc3)n2)n[nH]1 [Tozasertib] (partner 0.1 µM)
How it was run: as §1

Cell Line | relative viability ([1]; first compound 0.08 µM) | relative viability ([1]; first compound 0.8 µM) | relative viability ([1]; first compound 2.53 µM) | relative viability ([1]; first compound 8 µM) | relative viability ([2]; first compound 0.08 µM) | relative viability ([2]; first compound 0.8 µM) | relative viability ([2]; first compound 2.53 µM) | relative viability ([2]; first compound 8 µM) | relative viability (Masitinib + Phenformin; first compound 0.01 µM) | relative viability (Masitinib + Phenformin; first compound 0.03162 µM) | relative viability (Masitinib + Phenformin; first compound 0.1 µM) | relative viability (Masitinib + Phenformin; first compound 0.3162 µM) | relative viability (Masitinib + Phenformin; first compound 1 µM) | relative viability ([3]; first compound 0.08 µM) | relative viability ([3]; first compound 0.253 µM) | relative viability ([3]; first compound 0.8 µM) | relative viability ([3]; first compound 2.53 µM) | relative viability ([3]; first compound 8 µM) | relative viability ([1]; first compound 0.253 µM) | relative viability ([2]; first compound 0.253 µM)
PC-3 [JPC-3] | 0.711 | 1.11 | 0.712 | 0.663 | 0.909 | 1.15 | 0.961 | 1.05 | 0.47 | 0.429 | 0.47 | 0.46 | 0.37 | 0.837 | 0.803 | 0.789 | 0.771 | 0.61 | – | –
PC-14 | 0.254 | 0.383 | 0.247 | 0.316 | 0.144 | 0.141 | 0.134 | 0.136 | 0.458 | 0.633 | 0.572 | 0.507 | 0.506 | 0.527 | 0.58 | 0.497 | 0.526 | 0.555 | 0.28 | 0.131
RERF-LC-KJ | 1.09 | 0.775 | 0.222 | 0.911 | 0.518 | 0.506 | 0.361 | 0.474 | 0.387 | 0.451 | 0.438 | 0.447 | 0.35 | 0.447 | 0.476 | 0.438 | 0.382 | 0.259 | 0.691 | 0.488
SW 900 | 0.65 | 0.745 | 0.508 | 0.26 | 0.507 | 0.473 | 0.42 | 0.366 | 0.652 | 0.609 | 0.706 | 0.448 | 0.436 | 0.533 | 0.437 | 0.476 | 0.365 | 0.299 | 0.576 | 0.4
